From patent US10154684B2, “Hair regrowth and growth promoter and use thereof” (PHARMA FOODS INTERNATIONAL CO., LTD., priority 2014, dated 2018) come the findings set out here.

The test system of this assay is C57BL/6 (female) mice. Nature of the assay: Assessment of hair growth-promoting effect on androgen-induced telogen in C57BL/6 mice. To be noted: DHT 2 mg/mL, 100 μL subcutaneously every other day, casein-containing feed, Day 14, vs no DHT. Format: in vivo, mouse.

Each structure is given as a SMILES string.

Description: C57BL/6 (female) mice available from Charles River Laboratories Japan, Inc. were used for the test. The animals were randomly divided into test groups so that the mean body weight was approximately equal between groups. The mice were housed three per cage at room temperature (25° C.) under a 12-hour light-dark cycle.
The mice at six weeks old purchased from the vendor were preliminarily bred for one week for acclimation to the test environment. A commercially available hair removal cream was applied to the dorsal region of the mice at an age of seven weeks old to remove the hair.
Until the start of the test, the mice were fed with free access to a solid CRF-1 feed (Oriental Yeast Co., Ltd.) and tap water as drinking water.
The hair of the 7-week-old C57BL/6 mice was in the telogen phase of the hair cycle, but due to the stimulation of hair removal, the hair gradually entered into the anagen phase. This transition in the hair cycle was hampered by administration of an androgen after the hair removal. […] From two days after the hair removal, the mixed feeds indicated in Table 5 were given with free access thereto.
On the final observation day (Day 14 of administration), the mice in the test and control groups were anesthetized and fixed on a photography table, and the hair removal region was photographed.

For the compound `C[C@]12CCC(=O)C[C@@H]1CC[C@@H]1[C@@H]2CC[C@]2(C)[C@@H](O)CC[C@@H]12` [DHT, dihydrotestosterone], the “Blackening of the dorsal skin after hair removal” value is reported as “inhibited”.
